For five molecules, IC50 and Kd results are on record in patent publication US20240287138A1, “CYCLIC PEPTIDES FOR INHIBITING TNF RECEPTOR 1 ACTIVITY” (Merck Sharp & Dohme LLC, priority 2023, published 2024).

Numbered stars: 1 amine (or outer) side, 2 acyl side, 3 side chain; on linkers, the order of the positions; unused ones are H or OH. Bridge positions count the residues as written; N and C are the ends. Square brackets hold non-standard residues; d marks the D form. Peptide text beside a SMILES is read from it. Trp(βS-Me,7-OMe) = COc1cccc2c([C@H](C)[C@H](N)C(=O)O)c[nH]c12; Trp(βS-Me) = C[C@@H](c1c[nH]c2ccccc12)[C@H](N)C(=O)O; Trp(7-CN) = N#Cc1cccc2c(C[C@H](N)C(=O)O)c[nH]c12; Trp(7-Cl) = N[C@@H](Cc1c[nH]c2c(Cl)cccc12)C(=O)O; Ala(piperazin-1-yl) = N[C@@H](CN1CCNCC1)C(=O)O; Ala(pyrimidin-5-yl) = N[C@@H](Cc1cncnc1)C(=O)O; Phe(4-CONH2) = NC(=O)c1ccc(C[C@H](N)C(=O)O)cc1; Phe(4-COOH) = N[C@@H](Cc1ccc(C(=O)O)cc1)C(=O)O; 4Pal(3S-Me) = C[C@@H](c1ccncc1)[C@H](N)C(=O)O; Trp(7-aza) = N[C@@H](Cc1c[nH]c2ncccc12)C(=O)O; αMeW = C[C@](N)(Cc1c[nH]c2ccccc12)C(=O)O; X1 = O=C([C@@H]1CC[C@H](N[*:1])C1)[*:2]; Orn(N3) = [N-]=[N+]=NCCC[C@H](N)C(=O)O; Val(3-OH) = CC(C)(O)[C@H](N)C(=O)O; 3Pal = N[C@@H](Cc1cccnc1)C(=O)O; 4Pal = N[C@@H](Cc1ccncc1)C(=O)O; NMeE = CN[C@@H](CCC(=O)O)C(=O)O; dHyp = O=C(O)[C@H]1C[C@H](O)CN1; X61 = O=C(CN(CCCO)[*:1])[*:2]; Ahp(2) = CCCCC[C@H](N)C(=O)O; Pip = O=C(O)[C@@H]1CCCCN1; αMeS = C[C@](N)(CO)C(=O)O; Nle = CCCC[C@H](N)C(=O)O; Dap = NC[C@H](N)C(=O)O; Sar = CNCC(=O)O

The target of test [1] is T1, TNFα-induced NF-κB signal transduction pathway (TNFR1 signaling) in THP-1 cells (Homo sapiens, UniProt P19438).
T1 sequence (P19438 30-455): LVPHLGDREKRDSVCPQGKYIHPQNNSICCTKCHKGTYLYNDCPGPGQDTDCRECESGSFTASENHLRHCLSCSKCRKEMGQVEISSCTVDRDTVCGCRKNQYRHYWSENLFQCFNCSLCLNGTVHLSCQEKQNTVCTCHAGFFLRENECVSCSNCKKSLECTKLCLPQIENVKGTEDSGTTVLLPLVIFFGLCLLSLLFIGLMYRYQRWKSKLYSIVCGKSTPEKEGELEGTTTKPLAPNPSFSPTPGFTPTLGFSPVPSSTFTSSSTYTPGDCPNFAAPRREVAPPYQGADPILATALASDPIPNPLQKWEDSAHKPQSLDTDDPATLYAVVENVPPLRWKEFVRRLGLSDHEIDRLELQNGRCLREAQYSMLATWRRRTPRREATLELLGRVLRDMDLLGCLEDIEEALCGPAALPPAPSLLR
Put plainly: THP-1 Lucia NF-κB reporter cell assay, inhibition of TNFα-induced NF-κB signaling. In kind it is cell-based. To be noted: THP-1 NF-κB Lucia reporter cells, 10 ng/mL TNFα, 16-18 h, secreted luciferase; read-out: THP-1 IC50. A digest of the protocol: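 Macrocyclic peptides were preincubated 1 h at 37 °C with THP-1 NF-κB-Lucia reporter cells (20,000 cells/well) in antibiotic-free RPMI 1640/10% FBS, then stimulated with 10 ng/mL human TNFα overnight (16-18 h). Secreted luciferase in supernatant was read by luminescence; IC50 from 4-parameter logistic fits.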

The target of test [2] is T2, human soluble TNFR1 (sTNFR1) (Homo sapiens, UniProt P19438).
T2 construct: made in house; host or cells: Sf21 (baculovirus)
T2 sequence (P19438 with tags, fused parts or gaps): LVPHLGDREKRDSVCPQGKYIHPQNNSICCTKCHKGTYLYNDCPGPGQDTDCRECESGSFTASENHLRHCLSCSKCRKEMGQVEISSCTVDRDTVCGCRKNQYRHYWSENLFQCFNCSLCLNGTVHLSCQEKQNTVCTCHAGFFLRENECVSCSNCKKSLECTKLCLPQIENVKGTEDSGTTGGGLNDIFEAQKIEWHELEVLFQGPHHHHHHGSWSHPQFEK
Put plainly: Human sTNFR1-peptide displacement assay (LanthaScreen Eu TR-FRET binding assay). Here is the method: A. Procedure for Human sTNFR1-Peptide Displacement Assay
The affinity was determined using LanthaScreen Eu-based time-resolved fluorescence resonance energy transfer (TR-FRET)-based binding assay.
A TR-FRET assay measuring the displacement of biotinylated peptide SEQ ID NO. 1 from human soluble TNFR1 (sTNFR1) in a pre-formed complex by a macrocyclic peptide yields the affinity (Kd^app) of the cyclic peptide for sTNFR1. The reagents for the assay include: the C′-terminally 6His-tagged sTNFR1 (residues 1-211) protein purified from a Sf21 baculovirus expression system, the biotin-tagged B0372 peptide described in section “Preparation of Final Compounds”, part E, the LanthaScreen™ anti-His Tag Europium donor (Life Technologies Corporation (San Diego, CA), cat. #PV5597), and a streptavidin-conjugate Alexa Fluor™ 647 acceptor (Invitrogen (Waltham, MA), cat. #S32357). Time-resolved TR-FRET is achieved when sTNFR1 is bound to biotinylated peptide SEQ ID NO. 1 through coupling of the donor and acceptor FRET pair.
100 nM biotinylated peptide SEQ ID NO. […] 100 nM biotinylated peptide SEQ ID NO. 1 was chosen as it reflects the ˜Kd for this complex. After 30 min at ambient temperature, each test peptide (2 mM stock in DMSO) is titrated in a 20 point, ˜3-fold discrete dose-response using an acoustic-dispense liquid handler. Specifically, 80 nL of peptide/DMSO is transferred into a ProxiPlate-384 Plus 384-well assay plate (PerkinElmer, cat. #6008289). To this plate, 8 μL of the previously formed sTNFR 1-biotinylated peptide SEQ ID NO. 1 complex is added and allowed to reach binding equilibrium with the test peptide at ambient temperature for 90 min.
The TR-FRET signal is measured with the following EnVision® settings: excitation laser at 337 nm; emission1=615 nm, emission2=665 nm, LANCE/DELFIA dichroic mirror, delay time=[…]. The signal of each well is determined as the ratio of the emission at 665 nm to that at 615 nm. Percent displacement is determined by normalization to control wells containing DMSO (0%) or a saturating concentration of a displaceable peptide (100%). The %-effect as a function of peptide concentration is fit to a five-parameter logistic fit based on the Morrison equation to account for tight binding kinetics.

On to `CCCC[C@@H]1NC(=O)CSC[C@@H](C(N)=O)NC(=O)[C@H]([C@@H](C)c2c[nH]c3c(OC)cccc23)NC(=O)CN(C)C(=O)[C@H](Cc2ccc(O)cc2)NC(=O)[C@H](Cc2ccc(C(=O)O)cc2)NC(=O)[C@](C)(CO)NC(=O)[C@H](Cc2c[nH]c3c(Cl)cccc23)NC(=O)[C@H](Cc2ccncc2)NC(=O)[C@H](CC(N)=O)NC(=O)[C@H](CCC(=O)O)N(C)C(=O)[C@H](Cc2c[nH]c3ncccc23)NC(=O)[C@H](C(C)(C)O)NC(=O)[C@H](Cc2cncnc2)NC1=O` [SEQ ID NO. 177] ({CH2CO}-[Nle][Ala(pyrimidin-5-yl)][Val(3-OH)][Trp(7-aza)][NMeE]N[4Pal][Trp(7-Cl)][αMeS][Phe(4-COOH)]Y[Sar][Trp(βS-Me,7-OMe)]C-NH2; thioether N-14), for which the 50% inhibitory concentration (IC50) in test [1] turned out to be 3.3 nM. In addition, the equilibrium dissociation constant (Kd) in test [2] was determined as 0.54 nM.
For the molecule `CCCC[C@@H]1NC(=O)CSC[C@@H](C(N)=O)NC(=O)[C@H]([C@@H](C)c2c[nH]c3c(OC)cccc23)NC(=O)CN(C)C(=O)[C@H](Cc2ccc(O)cc2)NC(=O)[C@H](Cc2ccc(C(=O)O)cc2)NC(=O)[C@](C)(CO)NC(=O)[C@H](Cc2c[nH]c3c(Cl)cccc23)NC(=O)[C@H](Cc2ccncc2)NC(=O)[C@H](CC(N)=O)NC(=O)CN(CCCO)C(=O)[C@H](Cc2c[nH]c3ncccc23)NC(=O)[C@@H]2CCCCN2C(=O)[C@H](Cc2ccncc2)NC1=O` [SEQ ID NO. 170] ({CH2CO}-[Nle][4Pal][Pip][Trp(7-aza)][X61]N[4Pal][Trp(7-Cl)][αMeS][Phe(4-COOH)]Y[Sar][Trp(βS-Me,7-OMe)]C-NH2; thioether N-14), in test [2], the IC50 is 0.6 nM and the Kd was determined as 0.56 nM.
Turning to `CCCCC[C@@H]1NC(=O)CSC[C@@H](C(N)=O)NC(=O)[C@](C)(Cc2c[nH]c3ccccc23)NC(=O)CN(C)C(=O)[C@H](Cc2cccnc2)NC(=O)[C@H](Cc2ccc(C(=O)O)cc2)NC(=O)[C@](C)(CO)NC(=O)[C@H](Cc2c[nH]c3c(Cl)cccc23)NC(=O)[C@H](Cc2ccncc2)NC(=O)[C@H](CC(N)=O)NC(=O)[C@H]2CCCN2C(=O)[C@H]([C@@H](C)c2c[nH]c3ccccc23)NC(=O)[C@H](CN2CCNCC2)NC(=O)[C@H](Cc2ccc(O)cc2)NC1=O` [SEQ ID NO. 226] ({CH2CO}-[Ahp(2)]Y[Ala(piperazin-1-yl)][Trp(βS-Me)][dP]N[4Pal][Trp(7-Cl)][αMeS][Phe(4-COOH)][3Pal][Sar][αMeW]C-NH2; thioether N-14), the IC50 in test [2] amounted to 1.16 nM.
`CCCCC[C@@H]1NC(=O)[C@@H]2CC[C@@H](C2)NC(=O)[C@H]([C@@H](C)c2c[nH]c3c(OC)cccc23)NC(=O)CN(C)C(=O)[C@H](Cc2ccc(C(N)=O)cc2)NC(=O)[C@H](Cc2ccc(C(N)=O)cc2)NC(=O)[C@](C)(CO)NC(=O)[C@H](Cc2c[nH]c3c(C#N)cccc23)NC(=O)[C@H](Cc2ccc(C(=O)O)cc2)NC(=O)[C@H](CC(N)=O)NC(=O)[C@H]2C[C@H](O)CN2C(=O)[C@H](Cc2c[nH]c3ccccc23)NC(=O)[C@H](CCC(=O)O)NC(=O)[C@H]([C@@H](C)c2ccncc2)NC1=O` [SEQ ID NO. 280] (cyclo([Ahp(2)][4Pal(3S-Me)]EW[dHyp]N[Phe(4-COOH)][Trp(7-CN)][αMeS][Phe(4-CONH2)][Phe(4-CONH2)][Sar][Trp(βS-Me,7-OMe)][X1])) yielded a Kd in test [2] of 0.25 nM.
`C[C@@H](c1c[nH]c2ccccc12)[C@@H]1NC(=O)[C@H](CN)NC(=O)[C@H](Cc2ccc(O)cc2)NC(=O)[C@H](CCCN=[N+]=[N-])NC(=O)CSC[C@@H](C(N)=O)NC(=O)[C@](C)(Cc2c[nH]c3ccccc23)NC(=O)CN(C)C(=O)[C@H](Cc2c[nH]cn2)NC(=O)[C@H](Cc2ccc(C(=O)O)cc2)NC(=O)[C@](C)(CO)NC(=O)[C@H](Cc2c[nH]c3c(Cl)cccc23)NC(=O)[C@H](Cc2ccncc2)NC(=O)[C@H](CC(N)=O)NC(=O)[C@H]2CCCN2C1=O` [SEQ ID NO. 146] ({CH2CO}-[Orn(N3)]Y[Dap][Trp(βS-Me)][dP]N[4Pal][Trp(7-Cl)][αMeS][Phe(4-COOH)]H[Sar][αMeW]C-NH2; thioether N-14) yielded an IC50 in test [2] of 0.59 nM.

The term IC50 denotes the point on the concentration scale where inhibition reaches its midpoint. The term Kd denotes the equilibrium constant for the complex coming apart. A low value points to higher affinity.
